{"source": "patent US20070298098A1", "about": "“Controlled Release Compositions Comprising Levetiracetam” (ELAN PHARMA INTERNATIONAL LIMITED, priority 2005, published 2007)", "origin": "cited, not measured here", "note": "“Also recorded” adds a separate entry of the source."}
{"smiles": "CC[C@@H](C(N)=O)N1CCCC1=O", "note": "(single isomer, unassigned) [Levetiracetam]", "values": [{"measurement": "plasma half-life", "setting": "across studies", "result": "6 to 8", "unit": "h"}, {"measurement": "linearity of pharmacokinetics", "setting": "dose range of 500-5000 mg", "result": "linear"}, {"measurement": "dependence of metabolism on liver cytochrome P450", "setting": "in vivo", "result": "not liver cytochrome P450 dependent"}, {"measurement": "dose renally excreted unchanged", "setting": "in vivo", "result": 66, "unit": "%"}, {"measurement": "major metabolic pathway (enzymatic hydrolysis of the acetamide group), share of dose", "setting": "in vivo", "result": "24 % of dose"}, {"measurement": "time to steady state", "setting": "multiple twice-daily dosing", "result": 2, "unit": "days"}, {"measurement": "time of peak plasma concentrations", "setting": "oral administration, fasted subjects", "result": "about an hour"}, {"measurement": "decrease of Cmax by food", "setting": "with food", "result": 20, "unit": "%"}, {"measurement": "delay of Tmax by food", "setting": "with food", "result": 1.5, "unit": "h"}, {"measurement": "effect of food on extent of bioavailability / absorption", "setting": "with food", "result": "not affected by food; also recorded: Food does not affect the extent of absorption"}]}
